Test results published in US20100331348A1, “TROPANE DERIVATIVES USEFUL AS PESTICIDES” (SYNGENTA CROP PROTECTION, INC., priority 2007, published 2010).
Like-named read-outs stand apart in the source and are kept apart here.

What was measured:
Pyricularia oryzae = experiment: whole plant or invertebrate; type: in vivo; settings: foliar, 96 h
Plasmopara viticola = Plasmopara viticola (downy mildew of grapevine) leaf disk assay; type: in vivo; settings: foliar, 168 h, preventive, seven days after inoculation, read-out: control of fungal infection, Plasmopara viticola
Tetranychus urticae = settings: foliar, 192 h, read-out: control of Tetranychus urticae
[1] = tested on: Puccinia recondita f.sp. tritici; experiment: Puccinia recondita f.sp. tritici (wheat brown rust) leaf disk assay; type: in vivo; settings: foliar, 216 h, preventive, nine days after inoculation, read-out: control of fungal infection, Puccinia recondita f.sp. tritici
[2] = tested on: Erysiphe graminis f.sp. tritici; experiment: Erysiphe graminis f.sp. tritici (wheat powdery mildew) leaf disk assay; type: in vivo; settings: Blumeria graminis, foliar, 96 h, preventive, four days after inoculation, read-out: control of fungal infection, Erysiphe graminis fsp. tritici
Aedes aegypti = Aedes aegypti (Yellow fever mosquito) larvae test; type: in vivo; settings: 48 h
Plutella xylostella = Plutella xylostella (Diamond back moth) artificial diet test; settings: 120 h, read-out: control of Plutella xylostella
Phytophthora infestans = experiment: whole plant or invertebrate; type: in vivo; settings: foliar, 96 h, read-out: control of fungal infection, Phytophthora infestans
[3] = read-out: control of fungal infection, Pyricularia oryzae (at least 60% list)
[4] = read-out: control of fungal infection, Pyricularia oryzae (at least 80% list)

Row | SMILES | pest or weed control at 200 ppm (Pyricularia oryzae; [3]) | melting point | pest or weed control at 200 ppm (Tetranychus urticae) | pest or weed control at 200 ppm [1] | pest or weed control at 200 ppm [2] | further results
1 | CCc1ncnc(N2C3CCC2CC(O)(CC#C[Si](C)(C)C)C3)c1Cl (stereo not drawn) [Example 7.34] | ≥ 60% | 85 °C |  |  |  | 
2 | CCc1ncnc(N2C3CCC2CC(=NOCc2ccc(C(C)C)cc2)C3)c1Cl [Example 5.20] |  |  | ≥ 80% | ≥ 80% | ≥ 80% | pest or weed control at 200 ppm (Plasmopara viticola): ≥ 80%
3 | Cc1ccc(CON=C2CC3CCC(C2)N3c2ncnc3sccc23)cc1C [Example 5.179] | ≥ 60% |  | ≥ 80% | ≥ 80% | ≥ 80% | pest or weed control at 2 ppm (Aedes aegypti): ≥ 80%; pest or weed control at 200 ppm (Plutella xylostella): ≥ 80%
4 | Cc1cc(N2[C@@H]3CC[C@H]2CC(Oc2cccc(C(F)(F)F)n2)C3)n2ncnc2n1 (stereo partly drawn) [Example 2.101] |  | 212 °C |  |  |  | pest or weed control at 200 ppm (Plasmopara viticola): ≥ 80%
5 | FC(F)(F)c1ccnc(OC2C[C@H]3CC[C@@H](C2)N3c2ncnc3sccc23)c1 (stereo partly drawn) [Example 2.51] | ≥ 60% | 172 °C |  |  |  | 
6 | FC(F)(F)c1ccc(-c2nc(CON=C3CC4CCC(C3)N4c3ncnc4sccc34)no2)cc1 [Example 5.260] |  |  | ≥ 80% | ≥ 80% | ≥ 80% | 
7 | FC(F)(F)c1ccc(OC2C[C@H]3CC[C@@H](C2)N3c2ccnc3c(Cl)cccc23)nc1 (stereo partly drawn) [Example 2.206] | ≥ 60% |  | ≥ 80% |  |  | pest or weed control at 200 ppm (Plasmopara viticola): ≥ 80%
8 | Fc1cc(F)c(CON=C2CC3CCC(C2)N3c2ncnc3sccc23)cc1F [Example 5.226] |  | 106 °C |  | ≥ 80% | ≥ 80% | 
9 | CCc1ncnc(N2C3CCC2CC(=NOCc2ccc(OC(F)(F)F)cc2)C3)c1Cl [Example 5.66] |  |  | ≥ 80% | ≥ 80% | ≥ 80% | pest or weed control at 200 ppm (Plutella xylostella): ≥ 80%
10 | FC(F)(F)c1ccc(ON=C2CC3CCC(C2)N3c2ncnc3sccc23)nc1 [Example 5.170] | ≥ 60% |  | ≥ 80% | ≥ 80% | ≥ 80% | 
11 | Cc1csc2ncnc(N3[C@@H]4CC[C@H]3CC(Oc3ccc(C(F)(F)F)cn3)C4)c12 (stereo partly drawn) [Example 2.71] | ≥ 60% |  | ≥ 80% |  | ≥ 80% | pest or weed control at 200 ppm (Plasmopara viticola): ≥ 80%; pest or weed control at 2 ppm (Aedes aegypti): ≥ 80%
12 | CCc1ncnc(N2C3CCC2CC(=NOCc2ccc(C(F)(F)F)c(F)c2)C3)c1Cl [Example 5.86] |  |  | ≥ 80% | ≥ 80% |  | pest or weed control at 200 ppm (Pyricularia oryzae; [4]): ≥ 80%
13 | CCc1ncnc(N2C3CCC2CC(=NOCc2ccc(SC(F)(F)F)cc2)C3)c1Cl [Example 5.99] |  |  | ≥ 80% | ≥ 80% | ≥ 80% | 
14 | CCc1ncnc(N2C3CCC2CC(=NOCc2ccc(-c4ccccc4)cc2)C3)c1Cl [Example 5.22] |  |  | ≥ 80% | ≥ 80% | ≥ 80% | 
15 | CCOC(=O)C=C1CC2CCC(C1)N2c1ncnc2sccc12 [Example 3.34] | ≥ 60% | 101 °C |  | ≥ 80% |  | pest or weed control at 200 ppm (Plasmopara viticola): ≥ 80%; pest or weed control at 200 ppm (Pyricularia oryzae; [4]): ≥ 80%
16 | Cc1noc2ncnc(N3[C@@H]4CC[C@H]3CC(Oc3cccc(C(F)(F)F)n3)C4)c12 (stereo partly drawn) [Example 2.121] |  | 159 °C |  | ≥ 80% | ≥ 80% | 
17 | N#Cc1ccc(OC2C[C@H]3CC[C@@H](C2)N3c2ncnc3sccc23)cc1F (stereo partly drawn) [Example 1.259] |  |  | ≥ 80% | ≥ 80% |  | pest or weed control at 2 ppm (Aedes aegypti): ≥ 80%

Row | SMILES | pest or weed control at 200 ppm (Pyricularia oryzae; [3]) | melting point | pest or weed control at 200 ppm (Tetranychus urticae) | pest or weed control at 200 ppm [1] | pest or weed control at 200 ppm [2] | further results
18 | Cc1nn(C)c2nccc(N3[C@@H]4CC[C@H]3CC(Oc3ccc(C(F)(F)F)cn3)C4)c12 (stereo partly drawn) [Example 2.194] |  |  | ≥ 80% |  |  | 
19 | FC(F)(F)Oc1ccc(CON=C2CC3CCC(C2)N3c2ncnc3sccc23)cc1 [Example 5.210] |  |  | ≥ 80% | ≥ 80% | ≥ 80% | pest or weed control at 2 ppm (Aedes aegypti): ≥ 80%; pest or weed control at 200 ppm (Phytophthora infestans): ≥ 80%; pest or weed control at 200 ppm (Plutella xylostella): ≥ 80%
20 | CCC(=O)c1ccc(OC2C[C@H]3CC[C@@H](C2)N3c2ncnc3sccc23)cc1 (stereo partly drawn) [Example 2.37] |  |  | ≥ 80% |  | ≥ 80% | 
21 | O=C1c2ccccc2C(=O)N1OC1C[C@H]2CC[C@@H](C1)N2c1ncnc2sccc12 (stereo partly drawn) [Example 2.64] | ≥ 60% | 190 °C |  | ≥ 80% |  | pest or weed control at 200 ppm (Pyricularia oryzae; [4]): ≥ 80%
22 | CCc1ncnc(N2[C@@H]3CC[C@H]2CC(Oc2nc(Br)ccc2Cl)C3)c1Cl (stereo partly drawn) [Example 1.167] |  |  | ≥ 80% |  | ≥ 80% | 
23 | CCc1ncnc(N2C3CCC2CC(=Cc2ccccc2)C3)c1Cl [Example 3.6] | ≥ 60% |  | ≥ 80% |  |  | pest or weed control at 2 ppm (Aedes aegypti): ≥ 80%; pest or weed control at 200 ppm (Phytophthora infestans): ≥ 80%; pest or weed control at 200 ppm (Plutella xylostella): ≥ 80%
24 | FC(F)(F)c1ccnc(OC2C[C@H]3CC[C@@H](C2)N3c2ccncn2)c1 (stereo partly drawn) [Example 2.87] | ≥ 60% | 108 °C |  |  |  | 
25 | CC(C)(C)c1ccc(CON=C2CC3CCC(C2)N3c2ncnc3sccc23)cc1 [Example 5.167] |  |  | ≥ 80% | ≥ 80% | ≥ 80% | 
26 | Fc1c(Cl)cccc1CON=C1CC2CCC(C1)N2c1ncnc2sccc12 [Example 5.217] | ≥ 60% |  | ≥ 80% | ≥ 80% | ≥ 80% | pest or weed control at 200 ppm (Pyricularia oryzae; [4]): ≥ 80%; pest or weed control at 2 ppm (Aedes aegypti): ≥ 80%; pest or weed control at 200 ppm (Plutella xylostella): ≥ 80%
27 | N#CCC1CC2CCC(C1)N2c1ncnc2sccc12 (stereo not drawn) [Example 7.1] |  |  | ≥ 80% |  |  | 
28 | FC(F)(F)c1cnc(ON=C2CC3CCC(C2)N3c2ncnc3sccc23)c(Cl)c1 [Example 5.207] | ≥ 60% | 156 °C |  | ≥ 80% | ≥ 80% | 
29 | c1ccc2cc(CON=C3CC4CCC(C3)N4c3ncnc4sccc34)ccc2c1 [Example 5.147] |  |  | ≥ 80% | ≥ 80% | ≥ 80% | pest or weed control at 2 ppm (Aedes aegypti): ≥ 80%; pest or weed control at 200 ppm (Phytophthora infestans): ≥ 80%; pest or weed control at 200 ppm (Plutella xylostella): ≥ 80%
30 | Cc1cc(N2[C@@H]3CC[C@H]2CC(Oc2ccc(C(F)(F)F)cn2)C3)n2ncnc2n1 (stereo partly drawn) [Example 2.139] | ≥ 60% | 240 °C |  |  | ≥ 80% | 
31 | Fc1ccc(CON=C2CC3CCC(C2)N3c2ncnc3sccc23)c(Cl)c1 [Example 5.192] | ≥ 60% |  | ≥ 80% |  |  | pest or weed control at 2 ppm (Aedes aegypti): ≥ 80%; pest or weed control at 200 ppm (Plutella xylostella): ≥ 80%
32 | Cc1cc(C(F)(F)F)cc(ON=C2CC3CCC(C2)N3c2ncnc3sccc23)n1 [Example 5.196] |  | 167 °C |  | ≥ 80% | ≥ 80% | 
33 | Cc1nn(C)c2nccc(N3[C@@H]4CC[C@H]3CC(Oc3ncc(Cl)cc3F)C4)c12 (stereo partly drawn) [Example 1.252] | ≥ 60% | 112 °C |  |  | ≥ 80% | 
